# Reference: BindingDB's records for doi:10.1021/acs.jmedchem.8b01596 (China Pharmaceutical University, 2019)
# Molecular target: Hypoxia-inducible factor 1-alpha (Homo sapiens, UniProt Q16665)
# Experiment: Inhibition of HIF-1alpha in human HeLa cells after 6 hrs by luciferase reporter gene assay
# Chain of Hypoxia-inducible factor 1-alpha (Q16665 whole entry): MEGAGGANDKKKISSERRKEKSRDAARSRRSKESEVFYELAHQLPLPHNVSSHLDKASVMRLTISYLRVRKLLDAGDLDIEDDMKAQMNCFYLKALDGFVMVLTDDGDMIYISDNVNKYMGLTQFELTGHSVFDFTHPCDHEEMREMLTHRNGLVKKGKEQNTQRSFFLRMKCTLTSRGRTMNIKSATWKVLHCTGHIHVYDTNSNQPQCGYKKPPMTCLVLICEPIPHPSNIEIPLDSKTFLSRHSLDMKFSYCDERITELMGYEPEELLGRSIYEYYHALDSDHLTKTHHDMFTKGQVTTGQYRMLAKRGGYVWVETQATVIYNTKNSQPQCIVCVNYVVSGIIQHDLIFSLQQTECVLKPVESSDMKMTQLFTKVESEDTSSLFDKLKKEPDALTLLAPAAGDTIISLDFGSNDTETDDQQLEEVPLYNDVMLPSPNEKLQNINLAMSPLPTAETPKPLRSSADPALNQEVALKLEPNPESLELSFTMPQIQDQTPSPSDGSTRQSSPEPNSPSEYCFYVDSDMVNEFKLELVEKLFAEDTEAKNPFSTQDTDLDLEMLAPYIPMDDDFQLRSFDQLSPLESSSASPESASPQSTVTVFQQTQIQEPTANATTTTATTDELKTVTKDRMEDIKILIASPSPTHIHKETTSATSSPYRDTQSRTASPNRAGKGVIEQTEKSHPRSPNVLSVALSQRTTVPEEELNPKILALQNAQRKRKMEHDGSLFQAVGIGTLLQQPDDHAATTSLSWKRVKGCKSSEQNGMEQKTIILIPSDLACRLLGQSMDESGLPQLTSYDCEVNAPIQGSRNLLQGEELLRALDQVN
smiles,measurement,value
"Cc1ccc(C(=O)COC(=O)c2cccc(NC(=O)c3ccc([N+](=O)[O-])cc3[N+](=O)[O-])c2)cc1 [3-[[(2,4-dinitrophenyl)-oxomethyl]amino]benzoic acid [2-(4-methylphenyl)-2-oxoethyl] ester]",IC50,2.6 µM
